In ChEMBL document CHEMBL3046635, “Synthesis and Herbicidal Activity of New Pyrazole-4-carboxamide Derivatives” (J Pestic Sci, 2004):
Activity calls are given as the source filed them. Unless noted, the calls are words filed in the database; no cut-off is given here.

Legend:
[1] = system: Ammannia multiflora; test: Pre-emergence herbicidal activity against Ammannia multiflora at 500 g a.i/ha measured after 14 days; assay type: functional, organism-based
[2] = system: Elatine triandra; test: Post-emergence herbicidal activity against Elatine triandra assessed as bleaching of stem/leaf parts; assay type: functional, organism-based; further: test concentration or dose not given here
[3] = system: Lindernia procumbens; test: Pre-emergence herbicidal activity against Lindernia procumbens at 500 g a.i/ha measured after 14 days; assay type: functional, organism-based
[4] = system: Lindernia procumbens; test: Post-emergence herbicidal activity against Lindernia procumbens assessed as bleaching of stem/leaf parts; assay type: functional, organism-based; further: test concentration or dose not given here
[5] = system: Ammannia multiflora; test: Post-emergence herbicidal activity against Ammannia multiflora assessed as bleaching of stem/leaf parts; assay type: functional, organism-based; further: test concentration or dose not given here
[6] = system: Schoenoplectiella juncoides; test: Pre-emergence herbicidal activity against Schoenoplectiella juncoides at 100 g a.i/ha measured after 14 days; assay type: functional, organism-based
[7] = system: Cyperus difformis; test: Post-emergence herbicidal activity against Cyperus difformis assessed as bleaching of stem/leaf parts; assay type: functional, organism-based; further: test concentration or dose not given here
[8] = system: Elatine triandra; test: Pre-emergence herbicidal activity against Elatine triandra at 100 g a.i/ha measured after 14 days; assay type: functional, organism-based
[9] = system: Eleocharis acicularis; test: Pre-emergence herbicidal activity against Eleocharis acicularis at 500 g a.i/ha measured after 14 days; assay type: functional, organism-based
[10] = system: Oryza sativa; test: Phytotoxicity against Oryza sativa cv. Koshihikari (rice) at 500 g a.i/ha measured after 14 days; assay type: organism-based; conditions: in vivo, 336 h
[11] = system: Rotala indica; test: Pre-emergence herbicidal activity against Rotala indica at 100 g a.i/ha measured after 14 days; assay type: functional, organism-based
[12] = system: Lindernia procumbens; test: Pre-emergence herbicidal activity against Lindernia procumbens assessed as bleaching of stem/leaf parts; assay type: functional, organism-based
[13] = system: Echinochloa oryzicola; test: Post-emergence herbicidal activity against Echinochloa oryzicola assessed as bleaching of stem/leaf parts; assay type: functional, organism-based; further: test concentration or dose not given here
[14] = system: Ammannia multiflora; test: Pre-emergence herbicidal activity against Ammannia multiflora assessed as bleaching of stem/leaf parts; assay type: functional, organism-based
[15] = system: Echinochloa oryzicola; test: Pre-emergence herbicidal activity against Echinochloa oryzicola assessed as bleaching of stem/leaf parts; assay type: functional, organism-based
[16] = system: Rotala indica; test: Post-emergence herbicidal activity against Rotala indica assessed as bleaching of stem/leaf parts; assay type: functional, organism-based; further: test concentration or dose not given here
[17] = system: Lindernia procumbens; test: Pre-emergence herbicidal activity against Lindernia procumbens at 100 g a.i/ha measured after 14 days; assay type: functional, organism-based
[18] = system: Pontederia vaginalis; test: Pre-emergence herbicidal activity against Monochoria vaginalis at 500 g a.i/ha measured after 14 days; assay type: functional, organism-based
[19] = system: Cyperus difformis; test: Pre-emergence herbicidal activity against Cyperus difformis at 100 g a.i/ha measured after 14 days; assay type: functional, organism-based
[20] = system: Rotala indica; test: Pre-emergence herbicidal activity against Rotala indica assessed as bleaching of stem/leaf parts; assay type: functional, organism-based
[21] = system: Cyperus difformis; test: Pre-emergence herbicidal activity against Cyperus difformis at 500 g a.i/ha measured after 14 days; assay type: functional, organism-based
[22] = system: Schoenoplectiella juncoides; test: Pre-emergence herbicidal activity against Schoenoplectiella juncoides assessed as bleaching of stem/leaf parts; assay type: functional, organism-based
[23] = system: Pontederia vaginalis; test: Pre-emergence herbicidal activity against Monochoria vaginalis at 100 g a.i/ha measured after 14 days; assay type: functional, organism-based
[24] = system: Rotala indica; test: Pre-emergence herbicidal activity against Rotala indica at 500 g a.i/ha measured after 14 days; assay type: functional, organism-based
[25] = system: Eleocharis acicularis; test: Post-emergence herbicidal activity against Eleocharis acicularis assessed as bleaching of stem/leaf parts; assay type: functional, organism-based; further: test concentration or dose not given here
[26] = system: Pontederia vaginalis; test: Pre-emergence herbicidal activity against Monochoria vaginalis assessed as bleaching of stem/leaf parts; assay type: functional, organism-based
[27] = system: Cyperus difformis; test: Pre-emergence herbicidal activity against Cyperus difformis assessed as bleaching of stem/leaf parts; assay type: functional, organism-based
[28] = system: Schoenoplectiella juncoides; test: Pre-emergence herbicidal activity against Schoenoplectiella juncoides at 500 g a.i/ha measured after 14 days; assay type: functional, organism-based
[29] = system: Elatine triandra; test: Pre-emergence herbicidal activity against Elatine triandra at 500 g a.i/ha measured after 14 days; assay type: functional, organism-based
[30] = system: Eleocharis acicularis; test: Pre-emergence herbicidal activity against Eleocharis acicularis at 100 g a.i/ha measured after 14 days; assay type: functional, organism-based
[31] = system: Echinochloa oryzicola; test: Pre-emergence herbicidal activity against Echinochloa oryzicola at 500 g a.i/ha measured after 14 days; assay type: functional, organism-based
[32] = system: Echinochloa oryzicola; test: Pre-emergence herbicidal activity against Echinochloa oryzicola at 100 g a.i/ha measured after 14 days; assay type: functional, organism-based
[33] = system: Schoenoplectiella juncoides; test: Post-emergence herbicidal activity against Schoenoplectiella juncoides assessed as bleaching of stem/leaf parts; assay type: functional, organism-based; further: test concentration or dose not given here
[34] = system: Elatine triandra; test: Pre-emergence herbicidal activity against Elatine triandra assessed as bleaching of stem/leaf parts; assay type: functional, organism-based
[35] = system: Oryza sativa; test: Phytotoxicity against Oryza sativa cv. Koshihikari (rice) at 100 g a.i/ha measured after 14 days; assay type: organism-based; conditions: in vivo, 336 h
[36] = system: Eleocharis acicularis; test: Pre-emergence herbicidal activity against Eleocharis acicularis assessed as bleaching of stem/leaf parts; assay type: functional, organism-based
[37] = system: Ammannia multiflora; test: Pre-emergence herbicidal activity against Ammannia multiflora at 100 g a.i/ha measured after 14 days; assay type: functional, organism-based
[38] = system: Pontederia vaginalis; test: Post-emergence herbicidal activity against Monochoria vaginalis assessed as bleaching of stem/leaf parts; assay type: functional, organism-based; further: test concentration or dose not given here

| Structure (SMILES) | Activity [1] | Activity [2] | Activity [3] | Activity [4] | Activity [5] | Activity [6] | Activity [7] | Activity [8] | Activity [9] | Activity [10] | Activity [11] | Activity [12] | Activity [13] | Activity [14] | Activity [15] | Activity [16] | Activity [17] | Activity [18] | Activity [19] | Activity [20] | also measured |
| --- | --- | --- | --- | --- | --- | --- | --- | --- | --- | --- | --- | --- | --- | --- | --- | --- | --- | --- | --- | --- | --- |
| Cn1cc(C(=O)Nc2ccccc2)c(OCc2cccc(C(F)(F)F)c2)n1 | Active | Active | Active | Active | Active | inactive | Active | Active | Active | Non-toxic | Active | Active | Active | Active | Active | Active | Active | Active | inactive | Active | Activity [21]: Active; Activity [22]: Active; Activity [23]: Active; Activity [24]: Active; Activity [25]: Active; Activity [26]: Active; Activity [27]: Active; Activity [28]: Active; Activity [29]: Active; Activity [30]: Active; Activity [31]: Active; Activity [32]: Active; Activity [33]: Active; Activity [34]: Active; Activity [35]: Non-toxic; Activity [36]: Active; Activity [37]: Active; Activity [38]: Active |
| CCCCONC(=O)c1cn(C)nc1OCc1cccc(C(F)(F)F)c1 | Active | Active | Active | Active | Active | Active | Active | Active | Active | Toxic | Active | Active | Active | Active | Active | Active | Active | Active | Active | Active | Activity [21]: Active; Activity [22]: Active; Activity [23]: Active; Activity [24]: Active; Activity [25]: Active; Activity [26]: Active; Activity [27]: Active; Activity [28]: Active; Activity [29]: Active; Activity [30]: Active; Activity [31]: Active; Activity [32]: Active; Activity [33]: Active; Activity [34]: Active; Activity [35]: Non-toxic; Activity [36]: Active; Activity [37]: Active; Activity [38]: Active |
| Cn1cc(C(=O)NOc2cccc(Cl)c2)c(OCc2cccc(C(F)(F)F)c2)n1 | Active | Active | Active | Active | Active | Active | Active | Active | Active | Non-toxic | Active | Active | Active | Active | Active | Active | Active | Active | Active | Active | Activity [21]: Active; Activity [22]: Active; Activity [23]: Active; Activity [24]: Active; Activity [25]: Active; Activity [26]: Active; Activity [27]: Active; Activity [28]: Active; Activity [29]: Active; Activity [30]: Active; Activity [31]: Active; Activity [32]: Active; Activity [33]: Active; Activity [34]: Active; Activity [35]: Non-toxic; Activity [36]: Active; Activity [37]: Active; Activity [38]: Active |
| CCONC(=O)c1cn(CC)nc1OCc1cccc(C(F)(F)F)c1 | Active | Active | Active | Active | Active | inactive | Active | Active | Active | Non-toxic | Active | Active | Active | Active | Active | Active | Active | Active | Active | Active | Activity [21]: Active; Activity [22]: Active; Activity [23]: inactive; Activity [24]: Active; Activity [25]: Active; Activity [26]: Active; Activity [27]: Active; Activity [28]: Active; Activity [29]: Active; Activity [30]: inactive; Activity [31]: Active; Activity [32]: Active; Activity [33]: Active; Activity [34]: Active; Activity [35]: Non-toxic; Activity [36]: Active; Activity [37]: Active; Activity [38]: Active |
| Cn1cc(C(=O)NOc2ccc(F)cc2F)c(OCc2cccc(C(F)(F)F)c2)n1 | Active | Active | Active | Active | Active | inactive | Active | Active | Active | Non-toxic | Active | Active | Active | Active | Active | Active | Active | Active | Active | Active | Activity [21]: Active; Activity [22]: Active; Activity [23]: Active; Activity [24]: Active; Activity [25]: Active; Activity [26]: Active; Activity [27]: Active; Activity [28]: Active; Activity [29]: Active; Activity [30]: Active; Activity [31]: Active; Activity [32]: inactive; Activity [33]: Active; Activity [34]: Active; Activity [35]: Non-toxic; Activity [36]: Active; Activity [37]: Active; Activity [38]: Active |
| CONC(=O)c1cn(C)nc1OCc1cccc(C(F)(F)F)c1 | Active | Active | Active | Active | Active | Active | Active | Active | Active | Non-toxic | Active | Active | Active | Active | Active | Active | Active | Active | Active | Active | Activity [21]: Active; Activity [22]: Active; Activity [23]: Active; Activity [24]: Active; Activity [25]: Active; Activity [26]: Active; Activity [27]: Active; Activity [28]: Active; Activity [29]: Active; Activity [30]: inactive; Activity [31]: Active; Activity [32]: Active; Activity [33]: Active; Activity [34]: Active; Activity [35]: Non-toxic; Activity [36]: Active; Activity [37]: Active; Activity [38]: Active |
